For experiment [1], the target named is T1, histamine H1 receptor (Homo sapiens, UniProt P35367).
T1 construct: expressed in transfected cells
In words: Equilibrium receptor binding, recombinant human receptor. The following applies: for Ki: H1.

Experiment [2] concerns the target 5-HT6 (Homo sapiens, UniProt P50406). In words: Functional antagonism (Table 69).
In experiment [3] the target is T1, histamine H1 receptor. As to the kind of experiment: G-protein-independent signal transduction, β-arrestin signaling. Format: cell-based. The conditions noted are these: for IC50: H1, β-arrestin signaling, read-out: IC50, functional antagonist.
Experiment [4] has as its target T2, 5-HT2B (Homo sapiens, UniProt P41595).
T2 construct: expressed in transfected cells
In words: G-protein-dependent signal transduction, turnover of inositol triphosphate (IP). Format: cell-based. The conditions noted are these: read-out: IC50 (nM) (Antagonist).

Experiment [5] concerns the target Sigma 2 (Homo sapiens, UniProt Q5BJF2). In words: Equilibrium binding (Table 69).
The target in experiment [6] is T3, 5-HT1A receptor (Homo sapiens, UniProt P08908).
T3 construct: expressed in transfected cells
T3 sequence (P08908 1-422): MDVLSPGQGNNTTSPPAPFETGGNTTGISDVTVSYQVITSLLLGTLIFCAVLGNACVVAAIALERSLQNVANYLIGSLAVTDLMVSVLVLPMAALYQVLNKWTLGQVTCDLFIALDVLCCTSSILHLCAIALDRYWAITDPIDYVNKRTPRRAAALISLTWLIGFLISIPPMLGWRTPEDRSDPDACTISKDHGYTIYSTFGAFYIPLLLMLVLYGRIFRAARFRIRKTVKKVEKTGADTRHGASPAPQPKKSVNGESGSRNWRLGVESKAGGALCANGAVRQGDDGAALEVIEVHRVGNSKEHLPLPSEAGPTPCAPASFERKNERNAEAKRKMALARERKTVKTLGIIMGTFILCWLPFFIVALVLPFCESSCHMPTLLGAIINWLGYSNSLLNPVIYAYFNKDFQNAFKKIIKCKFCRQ
As to the kind of experiment: G-protein-dependent signal transduction (functional agonism). Type of experiment: cell-based. Here is the method:
Quantitation was based on peak area ratio of the analytes versus their stable labeled internal standards. A weighted (1/C2), linear regression was performed to determine the concentration of the analytes. All regressions and figures presented in this validation report were generated by MDS Sciex Analyst version 1.4.2 and Thermo Electron Corporation Watson LIMS software, version 7.0.0.01b. […] Select receptors were analyzed in ligand-induced intracellular calcium mobilization.

For experiment [7], the target named is T4, dopamine D1 receptor (Homo sapiens, UniProt P21728).
T4 construct: expressed in transfected cells
T4 sequence (P21728 whole entry): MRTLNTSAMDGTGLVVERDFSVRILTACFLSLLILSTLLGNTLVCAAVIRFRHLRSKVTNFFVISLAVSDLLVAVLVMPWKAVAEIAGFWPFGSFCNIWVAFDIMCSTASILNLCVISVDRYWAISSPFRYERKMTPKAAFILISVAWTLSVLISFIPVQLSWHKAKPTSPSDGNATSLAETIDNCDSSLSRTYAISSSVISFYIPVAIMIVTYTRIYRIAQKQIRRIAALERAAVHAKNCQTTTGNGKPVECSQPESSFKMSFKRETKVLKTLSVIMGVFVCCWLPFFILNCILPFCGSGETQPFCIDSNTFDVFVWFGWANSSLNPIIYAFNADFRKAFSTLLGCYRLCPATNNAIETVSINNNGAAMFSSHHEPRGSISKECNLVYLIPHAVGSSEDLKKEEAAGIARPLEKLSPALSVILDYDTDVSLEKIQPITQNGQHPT
In words: Equilibrium receptor binding, recombinant human receptor.

Experiment [8] addresses 5-HT transporter (Homo sapiens, UniProt P31645). In words: Equilibrium binding to transporters (FIG. 19). The following applies: Serotonin TP (transporter).
Experiment [9] concerns the target T2, 5-HT2B. As to the kind of experiment: Equilibrium receptor binding, recombinant human receptor.
Experiment [10] deals with dopamine (D) transporter (Homo sapiens, UniProt Q01959). As to the kind of experiment: biochemical.
dopamine (D) transporter, sequence (Q01959 whole entry): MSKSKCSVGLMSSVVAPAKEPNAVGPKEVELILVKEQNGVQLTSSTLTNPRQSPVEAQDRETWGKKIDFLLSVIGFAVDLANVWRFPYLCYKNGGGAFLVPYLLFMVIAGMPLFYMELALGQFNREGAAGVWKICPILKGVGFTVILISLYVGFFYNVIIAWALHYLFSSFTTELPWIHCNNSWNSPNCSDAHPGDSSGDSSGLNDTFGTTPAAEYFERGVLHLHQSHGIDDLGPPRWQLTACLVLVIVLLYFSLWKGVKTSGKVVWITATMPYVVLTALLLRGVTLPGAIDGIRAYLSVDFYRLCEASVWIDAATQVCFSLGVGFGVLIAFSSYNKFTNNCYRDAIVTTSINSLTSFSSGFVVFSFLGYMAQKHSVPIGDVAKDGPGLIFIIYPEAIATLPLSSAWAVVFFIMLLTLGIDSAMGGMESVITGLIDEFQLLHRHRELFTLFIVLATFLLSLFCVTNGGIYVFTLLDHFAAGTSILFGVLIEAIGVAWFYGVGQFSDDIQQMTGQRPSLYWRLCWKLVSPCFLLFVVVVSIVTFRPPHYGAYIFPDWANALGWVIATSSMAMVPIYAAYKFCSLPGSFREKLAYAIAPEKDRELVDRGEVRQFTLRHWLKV
Experiment [11] has as its target T5, 5-HT7 (Homo sapiens, UniProt P34969).
T5 construct: expressed in transfected cells
In words: Equilibrium receptor binding, recombinant human receptor.

Experiment [12] addresses Sigma 1 (Homo sapiens, UniProt Q99720). In words: Equilibrium binding (Table 69).
Experiment [13] deals with D5 (Homo sapiens, UniProt P21918). In words: Equilibrium receptor binding, recombinant human receptor.
D5, sequence (P21918 whole entry): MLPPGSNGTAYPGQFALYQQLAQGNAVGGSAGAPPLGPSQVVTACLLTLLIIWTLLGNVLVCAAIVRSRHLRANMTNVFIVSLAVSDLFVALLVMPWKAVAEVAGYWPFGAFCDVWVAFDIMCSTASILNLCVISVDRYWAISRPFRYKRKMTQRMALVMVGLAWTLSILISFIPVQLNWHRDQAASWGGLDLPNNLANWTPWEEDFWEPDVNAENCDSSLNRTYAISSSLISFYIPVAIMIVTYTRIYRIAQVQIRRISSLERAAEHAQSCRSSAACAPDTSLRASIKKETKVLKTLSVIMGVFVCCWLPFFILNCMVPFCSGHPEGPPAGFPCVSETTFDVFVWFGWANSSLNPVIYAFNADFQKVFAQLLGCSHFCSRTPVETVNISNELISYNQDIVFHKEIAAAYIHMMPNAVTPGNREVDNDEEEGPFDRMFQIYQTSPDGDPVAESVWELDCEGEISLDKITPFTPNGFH
In experiment [14] the target is T6, adrenergic alpha-2C receptor (Alpha2C) (Homo sapiens, UniProt P18825).
T6 construct: expressed in transfected cells
T6 sequence (P18825 1-462): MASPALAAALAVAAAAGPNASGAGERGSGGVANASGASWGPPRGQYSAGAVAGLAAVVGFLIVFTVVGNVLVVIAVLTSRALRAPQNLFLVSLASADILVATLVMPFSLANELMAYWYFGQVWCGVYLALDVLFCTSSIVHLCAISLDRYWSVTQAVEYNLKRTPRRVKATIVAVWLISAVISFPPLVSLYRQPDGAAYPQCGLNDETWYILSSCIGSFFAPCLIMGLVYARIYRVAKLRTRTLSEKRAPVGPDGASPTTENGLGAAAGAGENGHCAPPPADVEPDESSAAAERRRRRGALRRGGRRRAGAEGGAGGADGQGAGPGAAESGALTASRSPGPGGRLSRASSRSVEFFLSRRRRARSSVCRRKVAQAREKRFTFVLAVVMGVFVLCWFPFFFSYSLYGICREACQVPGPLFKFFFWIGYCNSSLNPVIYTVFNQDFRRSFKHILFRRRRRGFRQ
The experiment is described as above.

The target in experiment [15] is T7, adrenergic α1A receptor (Homo sapiens, UniProt P35348).
T7 construct: expressed in transfected cells
T7 sequence (P35348 1-466): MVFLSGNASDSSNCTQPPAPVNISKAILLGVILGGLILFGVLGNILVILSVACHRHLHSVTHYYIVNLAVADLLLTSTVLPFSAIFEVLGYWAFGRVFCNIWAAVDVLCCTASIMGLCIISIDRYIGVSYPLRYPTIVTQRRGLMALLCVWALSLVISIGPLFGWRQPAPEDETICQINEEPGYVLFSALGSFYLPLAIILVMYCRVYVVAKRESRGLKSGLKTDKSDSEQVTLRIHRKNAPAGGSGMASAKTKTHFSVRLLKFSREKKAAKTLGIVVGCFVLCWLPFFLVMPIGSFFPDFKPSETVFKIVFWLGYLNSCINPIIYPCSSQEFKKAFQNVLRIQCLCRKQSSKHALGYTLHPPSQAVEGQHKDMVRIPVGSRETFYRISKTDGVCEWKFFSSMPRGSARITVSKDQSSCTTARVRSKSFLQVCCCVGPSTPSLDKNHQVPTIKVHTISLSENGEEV
In words: G-protein-dependent signal transduction, intracellular Ca2+ mobilization. Type of experiment: cell-based. The conditions noted are these: for IC50: α1A, Ca2+ mobilization, read-out: IC50, functional antagonist. On the technique in general: A change in cytosolic calcium serves as a functional read-out for many receptors and channels.

Setting [16] is: read-out: IC50 (nM) (Antagonist).
Where [17] appears, read: read-out: EC50, functional agonist.

Where “and” joins values, the source holds several entries; their conditions need not be identical. Equal values may be shown once. Read-outs that look alike come from different tables or passages of the source.

T1 sequence (P35367 whole entry): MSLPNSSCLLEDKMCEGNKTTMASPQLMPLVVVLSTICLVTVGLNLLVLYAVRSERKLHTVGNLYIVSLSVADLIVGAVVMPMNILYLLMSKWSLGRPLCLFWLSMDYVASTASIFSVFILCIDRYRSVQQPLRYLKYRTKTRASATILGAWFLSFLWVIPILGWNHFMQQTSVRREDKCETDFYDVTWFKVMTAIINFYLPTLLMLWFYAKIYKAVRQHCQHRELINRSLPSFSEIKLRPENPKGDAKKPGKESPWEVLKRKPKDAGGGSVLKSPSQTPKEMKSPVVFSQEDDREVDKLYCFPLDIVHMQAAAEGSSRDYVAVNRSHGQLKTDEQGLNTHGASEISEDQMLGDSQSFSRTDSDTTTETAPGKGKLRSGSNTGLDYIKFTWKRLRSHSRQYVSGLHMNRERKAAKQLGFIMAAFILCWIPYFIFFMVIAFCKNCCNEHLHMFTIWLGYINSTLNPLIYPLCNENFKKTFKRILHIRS
T2 sequence (P41595 whole entry): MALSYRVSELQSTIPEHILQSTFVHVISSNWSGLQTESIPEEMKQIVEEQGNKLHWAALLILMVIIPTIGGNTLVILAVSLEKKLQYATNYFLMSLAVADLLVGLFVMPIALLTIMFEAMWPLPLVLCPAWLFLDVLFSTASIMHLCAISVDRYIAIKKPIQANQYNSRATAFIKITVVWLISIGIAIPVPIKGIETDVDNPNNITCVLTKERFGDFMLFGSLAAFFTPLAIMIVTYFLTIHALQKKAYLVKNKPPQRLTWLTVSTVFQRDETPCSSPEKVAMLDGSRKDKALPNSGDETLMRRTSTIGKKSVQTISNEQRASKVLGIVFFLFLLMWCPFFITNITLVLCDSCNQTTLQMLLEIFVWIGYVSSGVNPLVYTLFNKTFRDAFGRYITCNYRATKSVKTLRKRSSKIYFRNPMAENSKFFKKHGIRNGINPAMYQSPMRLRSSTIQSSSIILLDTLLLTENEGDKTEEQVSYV
T5 sequence (P34969 whole entry): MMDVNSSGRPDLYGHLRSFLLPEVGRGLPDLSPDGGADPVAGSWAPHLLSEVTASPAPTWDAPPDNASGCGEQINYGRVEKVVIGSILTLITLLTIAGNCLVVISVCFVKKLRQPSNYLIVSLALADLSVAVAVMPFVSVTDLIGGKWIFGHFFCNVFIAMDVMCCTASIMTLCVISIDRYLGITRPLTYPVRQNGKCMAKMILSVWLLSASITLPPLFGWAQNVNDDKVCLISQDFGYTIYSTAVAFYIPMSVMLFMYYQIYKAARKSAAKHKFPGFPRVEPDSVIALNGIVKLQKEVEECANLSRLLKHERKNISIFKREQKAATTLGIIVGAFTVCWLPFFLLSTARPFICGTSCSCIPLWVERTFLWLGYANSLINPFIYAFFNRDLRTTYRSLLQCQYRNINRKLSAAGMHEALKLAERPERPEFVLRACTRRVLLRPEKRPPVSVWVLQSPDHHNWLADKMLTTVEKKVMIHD
5-HT6, sequence (P50406 whole entry): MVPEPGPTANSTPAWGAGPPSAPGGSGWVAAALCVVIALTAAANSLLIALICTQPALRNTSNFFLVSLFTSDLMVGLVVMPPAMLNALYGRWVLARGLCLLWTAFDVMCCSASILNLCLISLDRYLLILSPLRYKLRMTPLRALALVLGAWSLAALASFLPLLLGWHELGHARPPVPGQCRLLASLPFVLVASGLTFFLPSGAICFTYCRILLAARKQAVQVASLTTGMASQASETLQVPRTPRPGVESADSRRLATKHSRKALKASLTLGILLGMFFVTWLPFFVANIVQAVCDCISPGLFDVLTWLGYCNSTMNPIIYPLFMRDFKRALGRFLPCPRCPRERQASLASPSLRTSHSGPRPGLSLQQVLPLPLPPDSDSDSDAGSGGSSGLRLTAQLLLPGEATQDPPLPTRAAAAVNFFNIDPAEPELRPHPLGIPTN
Sigma 1, sequence (Q99720 whole entry): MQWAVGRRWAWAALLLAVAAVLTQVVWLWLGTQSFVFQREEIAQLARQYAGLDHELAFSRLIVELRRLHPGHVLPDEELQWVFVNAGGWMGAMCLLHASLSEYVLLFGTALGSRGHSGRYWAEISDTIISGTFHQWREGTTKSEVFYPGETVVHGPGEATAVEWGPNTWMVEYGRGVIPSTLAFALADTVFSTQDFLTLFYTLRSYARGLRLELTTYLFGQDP
Sigma 2, sequence (Q5BJF2 whole entry): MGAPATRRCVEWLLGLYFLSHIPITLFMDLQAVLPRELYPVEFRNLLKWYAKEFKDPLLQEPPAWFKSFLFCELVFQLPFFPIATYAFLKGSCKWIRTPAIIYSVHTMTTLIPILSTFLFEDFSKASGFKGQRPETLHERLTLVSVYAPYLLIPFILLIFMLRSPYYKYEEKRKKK
5-HT transporter, sequence (P31645 whole entry): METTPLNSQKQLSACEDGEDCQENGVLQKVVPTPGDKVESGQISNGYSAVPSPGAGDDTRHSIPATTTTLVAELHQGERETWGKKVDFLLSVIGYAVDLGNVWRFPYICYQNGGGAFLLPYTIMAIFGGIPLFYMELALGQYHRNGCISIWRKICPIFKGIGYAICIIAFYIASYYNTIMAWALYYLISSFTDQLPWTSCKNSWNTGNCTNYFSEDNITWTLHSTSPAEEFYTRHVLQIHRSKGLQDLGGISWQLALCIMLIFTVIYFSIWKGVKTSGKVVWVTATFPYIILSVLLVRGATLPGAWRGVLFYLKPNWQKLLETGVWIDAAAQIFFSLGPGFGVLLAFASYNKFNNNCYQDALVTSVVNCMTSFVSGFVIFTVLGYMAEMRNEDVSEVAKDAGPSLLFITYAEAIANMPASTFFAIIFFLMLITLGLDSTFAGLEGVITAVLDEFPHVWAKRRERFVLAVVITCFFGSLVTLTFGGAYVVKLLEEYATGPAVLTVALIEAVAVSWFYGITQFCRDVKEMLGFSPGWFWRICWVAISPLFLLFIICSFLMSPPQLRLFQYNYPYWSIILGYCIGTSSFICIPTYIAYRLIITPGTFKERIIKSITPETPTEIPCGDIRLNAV

In the case of `CN(C)CCC=C1c2ccccc2C=Cc2ccccc21` [cyclobenzaprine, 3-(5H-dibenzo[a,d]cyclohepten-5-ylidene)-N,N-dimethyl-1-propanamine], the inhibition constant Ki (as a rule, the equilibrium dissociation constant of an inhibitor or competing ligand from its target) in experiment [1] is 0.0013 µM; in [7], 0.012 µM; in experiment [9], 0.015 µM; in experiment [10] it was above 10 µM; in experiment [11], 0.067 µM; in experiment [13] it was 0.06 µM. In addition, in experiment [14], the Ki was 0.021 µM and 0.025 µM. The concentration for half-maximal inhibition (IC50) (as a rule, the midpoint of a concentration-inhibition curve) in experiment [2] is 2 µM; in [3] it was 0.0027 µM; in [4], 760 nM; in experiment [5] (setting [16]), 2000 nM; in experiment [8] (setting [16]) it was 91 nM; in experiment [12] (setting [16]) it was 790 nM. Also, in [15], the IC50 stood at 0.0049 µM. The EC50 (as a rule, the concentration at which the effect is half-maximal) in experiment [6] (read-out: EC50 (nM) (Agonist)) stood at 3200 nM; in [6] (setting [17]), 5300 nM.

`CNCCC=C1c2ccccc2C=Cc2ccccc21` [norcyclobenzaprine, 3-(5H-dibenzo[a,d]cyclohepten-5-ylidene)-N-methyl-1-propanamine]: the “Hill plot ratio (Hill slope)” value was determined as 1.04 in experiment [1], 1.15 in experiment [7] (equilibrium binding) and 1.10 in experiment [9] (equilibrium binding). The inhibition constant Ki in [1] was 0.0056 µM and 0.0059 µM; in experiment [5], 0.48 µM; in [7], 0.057 µM; in experiment [8], 0.029 µM; in [9], 0.012 µM; in [10], above 10 µM. For the same compound, the inhibitory constant (Ki) in experiment [11] stood at 0.14 µM; in experiment [12], 0.12 µM; in [13], 0.28 µM; in experiment [14] it was 0.048 µM. The concentration for half-maximal inhibition (IC50) was determined as 2.8 µM in [2]; 0.0061 µM in experiment [3]; 1400 nM in [4]; 5300 nM in [6] (setting [16]); 0.016 µM in [15]. Further, in experiment [3] (H1), the “Four parameter Hill slope (or fit slope) ratio; β-arrestin signaling” value was 1.09. In addition, the entries for the “Four parameter Hill slope (or fit slope) ratio; Ca2+ signaling” value in [6] and in [15] (α-1A) were −0.79 and 2.27, respectively. The concentration for a half-maximal effect (EC50) in experiment [6] (setting [17]) was 3200 nM.

For the origin of these results see patent US20260232578A1, “COMPOSITIONS AND METHODS FOR TRANSMUCOSAL ABSORPTION” (Tonix Pharma Limited, priority 2012, published 2026).
